Data as given in patent US9593149B2, “Amylin and calcitonin receptor agonist” (Novo Nordisk A/S, priority 2014, dated 2017).
Values after ≈ are worked out from the molar mass of the structure shown. Numbered stars: 1 amine (or outer) side, 2 acyl side, 3 side chain; on linkers, the order of the positions; unused ones are H or OH. Side chains are listed from the residue outwards. Peptide text beside a SMILES is read from it. * marks the point of attachment. C20 diacid = O=C(O)CCCCCCCCCCCCCCCCCCC(=O)*; C18 diacid = O=C(O)CCCCCCCCCCCCCCCCC(=O)*; C16 diacid = O=C(O)CCCCCCCCCCCCCCC(=O)*; γGlu = O=C(O)[C@H](CCC(=O)[*:2])N[*:1]

Key:
[1] = target: T1, rat calcitonin receptor (Rattus norvegicus, UniProt P32214); test: Assay (VIII) binding to the rat calcitonin receptor; conditions: membranes; read-out: rCT-R binding IC50
T1 construct: expressed in transfected cells; host or cells: BHK tk'ts 13 (transient, FuGENE 6)
T1 sequence (P32214 25-479 isoform P32214-2 limits assumed): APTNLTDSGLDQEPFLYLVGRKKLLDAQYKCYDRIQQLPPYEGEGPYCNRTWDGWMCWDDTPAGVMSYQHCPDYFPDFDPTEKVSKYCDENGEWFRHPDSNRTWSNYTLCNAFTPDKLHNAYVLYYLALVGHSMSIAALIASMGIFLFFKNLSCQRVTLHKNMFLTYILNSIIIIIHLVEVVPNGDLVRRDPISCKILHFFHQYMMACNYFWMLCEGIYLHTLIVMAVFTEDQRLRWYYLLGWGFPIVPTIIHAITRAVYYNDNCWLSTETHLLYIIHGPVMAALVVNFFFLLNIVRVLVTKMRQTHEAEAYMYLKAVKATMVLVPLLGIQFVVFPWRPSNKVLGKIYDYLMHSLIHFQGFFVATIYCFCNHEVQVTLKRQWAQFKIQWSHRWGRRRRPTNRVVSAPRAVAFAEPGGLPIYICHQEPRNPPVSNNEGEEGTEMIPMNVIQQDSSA
Procedure, shortened: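 Competition binding on membranes from BHK tk'ts 13 cells transiently transfected with rat calcitonin receptor, otherwise run as the human receptor assay. Plates washed in cold HBSS, lysed in 0.1 M NaOH/1% SDS and scintillation-counted. IC50 from one-site competition fit as affinity measure.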

[2] = Assay (IV) determination of solubility; type: physicochemical
Method: Assay (IV)—Determination of Solubility
The mimylin peptide was dissolved in water at ˜500 nmol/ml and mixed 1:1 with a series of buffers (100 mM glycylglycine pH 3.0, 100 mM glycylglycine pH 4.0, 100 mM glycylglycine pH 5.0, 100 mM bistrispropane pH 6.0, 100 mM bistrispropane pH 6.5, 100 mM bistrispropane pH 7.0, 100 mM bistrispropane pH 7.5, 100 mM bistrispropane pH 8.0).

SMILES	IC50 [1]	Solubility ([2]; pH 3.0)	Solubility ([2]; pH 4.0)	Solubility ([2]; pH 5.0)	Solubility ([2]; pH 6.0)	Solubility ([2]; pH 6.5)	Solubility ([2]; pH 7.0)	Solubility ([2]; pH 7.5)	Solubility ([2]; pH 8.0)	solubility at 18 h ([2]; pH 4.0)	solubility at 18 h ([2]; pH 5.0)
CC(C)C[C@H](NC(=O)[C@H](C)NC(=O)[C@H](C)NC(=O)[C@@H](NC(=O)[C@H](CO)NC(=O)[C@H](CC(C)C)NC(=O)[C@H](CCC(=O)O)NC(=O)[C@H](CO)NC(=O)[C@H](C)NC(=O)CCCCCCCCCCCCCCC(=O)O)[C@@H](C)O)C(=O)NCC(=O)N[C@@H](CCCNC(=N)N)C(=O)N[C@@H](CC(C)C)C(=O)N[C@@H](CO)C(=O)N[C@@H](C)C(=O)N[C@@H](CCC(=O)O)C(=O)N[C@@H](CC(C)C)C(=O)N[C@@H](Cc1cnc[nH]1)C(=O)N[C@@H](CCC(=O)O)C(=O)N[C@@H](CC(C)C)C(=O)N[C@@H](C)C(=O)N[C@H](C(=O)N[C@@H](CC(C)C)C(=O)N1CCC[C@H]1C(=O)N[C@@H](CCCNC(=N)N)C(=O)N[C@H](C(=O)N[C@@H](CCC(=O)O)C(=O)N[C@H](C(=O)NCC(=O)N[C@@H](CO)C(=O)NCC(=O)N[C@@H](CO)C(=O)N1CCC[C@H]1C(N)=O)[C@@H](C)O)[C@@H](C)O)[C@@H](C)O [compound 49, [N-terminal(C16 diacid), des1, 30S, 31G]mimylin] ({C16 diacid}-ASELSTAALGRLSAELHELATLPRTETGSGSP-NH2)	0.011 nM	≧200 μM	≧200 μM	≧200 μM	≧200 μM	≧200 μM	≧200 μM	≧200 μM	≧200 μM	–	–
CC(C)C[C@H](NC(=O)[C@H](C)NC(=O)[C@H](C)NC(=O)[C@@H](NC(=O)[C@H](CO)NC(=O)[C@H](CC(C)C)NC(=O)[C@H](CCC(=O)O)NC(=O)[C@H](CO)NC(=O)[C@H](C)N)[C@@H](C)O)C(=O)NCC(=O)N[C@@H](CCCNC(=N)N)C(=O)N[C@@H](CC(C)C)C(=O)N[C@@H](CO)C(=O)N[C@@H](C)C(=O)N[C@@H](CCCCNC(=O)CC[C@H](NC(=O)CCCCCCCCCCCCCCCCCCC(=O)O)C(=O)O)C(=O)N[C@@H](CC(C)C)C(=O)N[C@@H](Cc1cnc[nH]1)C(=O)N[C@@H](CCC(=O)O)C(=O)N[C@@H](CC(C)C)C(=O)N[C@@H](C)C(=O)N[C@H](C(=O)N[C@@H](CC(C)C)C(=O)N1CCC[C@H]1C(=O)N[C@@H](CCCNC(=N)N)C(=O)N[C@H](C(=O)N[C@@H](CCC(=O)O)C(=O)N[C@H](C(=O)NCC(=O)N[C@@H](CO)C(=O)NCC(=O)N[C@@H](CO)C(=O)N1CCC[C@H]1C(N)=O)[C@@H](C)O)[C@@H](C)O)[C@@H](C)O [compound 53, [des1, 16K(C20 diacid-gGlu), 30S, 31G]mimylin] (H-ASELSTAALGRLSAK([γGlu-C20 diacid])LHELATLPRTETGSGSP-NH2)	0.065 nM	≧200 μM	≧200 μM	≧200 μM	≧200 μM	≧200 μM	≧200 μM	≧200 μM	≧200 μM	–	–
CC(C)C[C@H](NC(=O)[C@H](C)NC(=O)[C@H](C)NC(=O)[C@@H](NC(=O)[C@H](CO)NC(=O)[C@H](CC(C)C)NC(=O)[C@H](CCC(=O)O)NC(=O)[C@H](CO)NC(=O)[C@H](C)NC(=O)CCCCCCCCCCCCCCCCC(=O)O)[C@@H](C)O)C(=O)NCC(=O)N[C@@H](CCCNC(=N)N)C(=O)N[C@@H](CC(C)C)C(=O)N[C@@H](CO)C(=O)N[C@@H](C)C(=O)N[C@@H](CCC(=O)O)C(=O)N[C@@H](CC(C)C)C(=O)N[C@@H](Cc1cnc[nH]1)C(=O)N[C@@H](CCC(=O)O)C(=O)N[C@@H](CC(C)C)C(=O)N[C@@H](C)C(=O)N[C@H](C(=O)N[C@@H](CC(C)C)C(=O)N1CCC[C@H]1C(=O)N[C@@H](CCCNC(=N)N)C(=O)N[C@H](C(=O)N[C@@H](CCC(=O)O)C(=O)N[C@H](C(=O)NCC(=O)N[C@@H](CO)C(=O)NCC(=O)N[C@@H](CO)C(=O)N1CCC[C@H]1C(N)=O)[C@@H](C)O)[C@@H](C)O)[C@@H](C)O [compound 48, [N-terminal(C18 diacid), des1, 30S, 31G]mimylin] ({C18 diacid}-ASELSTAALGRLSAELHELATLPRTETGSGSP-NH2)	0.013 nM	≧200 μM	≧200 μM	≧200 μM	≧200 μM	≧200 μM	≧200 μM	≧200 μM	≧200 μM	–	–

More lines, now with the values ahead:

IC50 [1]	Solubility ([2]; pH 3.0)	Solubility ([2]; pH 4.0)	Solubility ([2]; pH 5.0)	Solubility ([2]; pH 6.0)	Solubility ([2]; pH 6.5)	Solubility ([2]; pH 7.0)	Solubility ([2]; pH 7.5)	Solubility ([2]; pH 8.0)	solubility at 18 h ([2]; pH 4.0)	solubility at 18 h ([2]; pH 5.0)	SMILES
0.085 nM	≧200 μM	≧200 μM	≧200 μM	≧200 μM	≧200 μM	≧200 μM	≧200 μM	≧200 μM	–	–	CC(C)C[C@H](NC(=O)[C@H](C)NC(=O)[C@H](C)NC(=O)[C@@H](NC(=O)[C@H](CO)NC(=O)[C@H](CC(C)C)NC(=O)[C@H](CCC(=O)O)NC(=O)[C@H](CO)NC(=O)[C@H](C)NC(=O)CC[C@H](NC(=O)CCCCCCCCCCCCCCCCCCC(=O)O)C(=O)O)[C@@H](C)O)C(=O)NCC(=O)N[C@@H](Cc1cnc[nH]1)C(=O)N[C@@H](CC(C)C)C(=O)N[C@@H](CO)C(=O)N[C@@H](C)C(=O)N[C@@H](CCC(=O)O)C(=O)N[C@@H](CC(C)C)C(=O)N[C@@H](Cc1cnc[nH]1)C(=O)N[C@@H](CCC(=O)O)C(=O)N[C@@H](CC(C)C)C(=O)N[C@@H](C)C(=O)N[C@H](C(=O)N[C@@H](CC(C)C)C(=O)N1CCC[C@H]1C(=O)N[C@@H](CCCNC(=N)N)C(=O)N[C@H](C(=O)N[C@@H](CCC(=O)O)C(=O)N[C@H](C(=O)NCC(=O)N[C@@H](CO)C(=O)NCC(=O)N[C@@H](CO)C(=O)N1CCC[C@H]1C(N)=O)[C@@H](C)O)[C@@H](C)O)[C@@H](C)O [compound 72, [N-terminal(C20 diacid-gGlu), des1, 12H, 30S, 31G]mimylin] ({C20 diacid-γGlu}-ASELSTAALGHLSAELHELATLPRTETGSGSP-NH2)
0.016 nM	≧200 μM	–	–	≧200 μM	≧200 μM	≧200 μM	≧200 μM	≧200 μM	170 µM (≈ 671 µg/mL)	56 µM (≈ 221 µg/mL)	CC(C)C[C@H](NC(=O)CNC(=O)[C@H](CO)NC(=O)[C@H](C)NC(=O)CC[C@H](NC(=O)CCCCCCCCCCCCCCCCCCC(=O)O)C(=O)O)C(=O)N[C@@H](CO)C(=O)N[C@H](C(=O)N[C@@H](C)C(=O)N[C@H](C(=O)N[C@@H](CC(C)C)C(=O)NCC(=O)N[C@@H](CCCNC(=N)N)C(=O)N[C@@H](CC(C)C)C(=O)N[C@@H](CO)C(=O)N[C@@H](CCC(N)=O)C(=O)N[C@@H](CCC(=O)O)C(=O)N[C@@H](CC(C)C)C(=O)N[C@@H](Cc1cnc[nH]1)C(=O)N[C@@H](CCC(=O)O)C(=O)N[C@@H](CC(C)C)C(=O)N[C@@H](CCC(N)=O)C(=O)N[C@H](C(=O)N[C@@H](Cc1ccc(O)cc1)C(=O)N1CCC[C@H]1C(=O)N[C@@H](CCCNC(=N)N)C(=O)N[C@H](C(=O)N[C@@H](CCC(=O)O)C(=O)N[C@H](C(=O)NCC(=O)N[C@@H](CO)C(=O)N[C@@H](CCC(N)=O)C(=O)N[C@H](C(=O)N[C@@H](Cc1ccc(O)cc1)C(N)=O)[C@@H](C)O)[C@@H](C)O)[C@@H](C)O)[C@@H](C)O)C(C)C)[C@@H](C)O [compound 119, [N-terminal(C20 diacid-gGlu), des1, 4G, 9V, 15Q, 21Q, 23Y, 30S, 31Q, 32T, 33Y]mimylin] ({C20 diacid-γGlu}-ASGLSTAVLGRLSQELHELQTYPRTETGSQTY-NH2)
0.032 nM	≧200 μM	≧200 μM	–	≧200 μM	≧200 μM	≧200 μM	≧200 μM	≧200 μM	–	110 µM (≈ 455 µg/mL)	CC(C)C[C@H](NC(=O)CNC(=O)[C@H](CO)NC(=O)[C@H](C)NC(=O)COCCOCCNC(=O)COCCOCCNC(=O)CC[C@H](NC(=O)CCCCCCCCCCCCCCCCC(=O)O)C(=O)O)C(=O)N[C@@H](CO)C(=O)N[C@H](C(=O)N[C@@H](C)C(=O)N[C@H](C(=O)N[C@@H](CC(C)C)C(=O)NCC(=O)N[C@@H](CCCNC(=N)N)C(=O)N[C@@H](CC(C)C)C(=O)N[C@@H](CO)C(=O)N[C@@H](CCC(N)=O)C(=O)N[C@@H](CCC(=O)O)C(=O)N[C@@H](CC(C)C)C(=O)N[C@@H](Cc1cnc[nH]1)C(=O)N[C@@H](CCC(=O)O)C(=O)N[C@@H](CC(C)C)C(=O)N[C@@H](CCC(N)=O)C(=O)N[C@H](C(=O)N[C@@H](Cc1ccc(O)cc1)C(=O)N1CCC[C@H]1C(=O)N[C@@H](CCCNC(=N)N)C(=O)N[C@H](C(=O)N[C@@H](CCC(=O)O)C(=O)N[C@H](C(=O)NCC(=O)N[C@@H](CO)C(=O)NCC(=O)N[C@H](C(=O)N[C@@H](Cc1ccc(O)cc1)C(N)=O)[C@@H](C)O)[C@@H](C)O)[C@@H](C)O)[C@@H](C)O)C(C)C)[C@@H](C)O [compound 121, [N-terminal(C18 diacid-gGlu-2xOEG), des1, 4G, 9V, 15Q, 21Q, 23Y, 30S, 31G, 32T, 33Y]mimylin]
